Results reported in patent US5179089A, “Isoquinoline compounds, compositions and use” (Chinoin Gyogyszer es Vegyeszeti Termekek Gyara Rt., priority 1990, dated 1993).
Counter-ions that a name gives are not always drawn. Like-named read-outs stand apart in the source and are kept apart here.

Legend:
[1] = tested on: histamine-induced constriction of isolated tracheal smooth muscle of guinea pig; experiment: Inhibition of the histamine-induced constriction of isolated tracheal smooth muscle of guinea pig; details: isolated guinea pig trachea; for IC50: Cavia porcellus, 0.25 h, read-out: Inhibition of the histamine-induced constriction of isolated tracheal smooth muscle of guinea pig pd'2 (converted)
Experimental: I Study on the Effects Against Spasmogenic Mediators [modified method of J. C. […] The investigation on isolated organs were carried out as follows. OHF Lt/R9 guinea pigs of both sexes weighing 300 to 400 g each were anaesthetized by pentobarbital. Their trachea was removed and sectioned in the opposite side to the site of smooth muscle in longitudinal direction. Subsequently, a strip-like preparation was obtained by […] cutting. […] A rest load of 0.5 g was used. Several washings were carried out during the incubation period of 30 minutes. The change in the tension of the tracheal smooth muscle was followed by using an isometric Grass FT-03 type tensiometer sensor device. A washing was made following the cumulative dose series of the given mediator (e.g. histamine). After reaching the base line, by 15 minutes after administration of the given concentration of the inhibitory (antiasthmatic) substance to be tested, the next cumulative dose series of the mediator was administered. In the case of an inhibitory action, the strength of effect, following the second dose series of the mediator, was […] in comparison to that of the first (control) series. For characterization of strength of the competitive antagonistic effect the pA2 value was determined according to the method of […] A pd'2 value was calculated [J. M. Van Rossum: Arch. Int.

[2] = tested on: carrageenin-induced rat paw edema; experiment: Carrageenin-induced rat paw edema test; type: in vivo, rat (female CFY); details: Rattus norvegicus, po, 50 mg/kg (p.o.), read-out: Percentage of the protective effect
Experimental: Proc. Soc. Exp. Med. 111, 544 (1962)]. Female CFY rats weighing 100 to 120 g each were used after starvation for 24 hours. The inflammation was induced by injecting 0.1 ml of 1% carrageenin solution into the right hind paw plant. The severity of inflammation was determined by using an Ugo-Basile type plethysmometer. The measurement was carried out before and 1.5, 3 and 4.5 hours after induction of the inflammation. The animals were orally treated with the substance to be tested 1 hour before administration of carrageenin. The effect was expressed as percentage inhibition related to the control group.

[3] = tested on: dextran-induced rat paw edema; experiment: Dextran-induced rat paw edema test; type: in vivo; details: 50 mg/kg (p.o.)
Experimental: 3) Dextran-induced rat paw edema test The method of S. Gourvaisier and R. Ducrot [Arch. Int. Pharmacodyn. Ther. 102, 33 (1955)] was employed. The method described for the carrageenin edema test was followed, except that the measurements were carried out 30, 60, 90, 120 and 180 minutes after induction of the inflammation.

| SMILES | IC50 [1] [µM] | change in vivo at 50 mg/kg ([2]; 1.5 hours) [%] | change in vivo at 50 mg/kg ([2]; 3 hours) [%] | change in vivo at 50 mg/kg ([2]; 4.5 hours) [%] | further results |
| --- | --- | --- | --- | --- | --- |
| CCOc1cc2c(cc1OCC)C(=C(C#N)SCC(O)CNC(C)C)NCC2 (centres unmarked) [Example 7, 2-(6,7-diethoxy-1,2,3,4-tetrahydro-1-isoquinolinylidene)-2-(2-hydroxy-3-isopropylaminopropyl)mercaptoacetonitrile hydrochloride] | 17.4 |  |  |  |  |
| CCOc1cc2c(cc1OCC)C(=C(C#N)SCC(O)CN1CCOCC1)NCC2.Cl (single isomer, unassigned; (+)) [Example 28, (+)-2-(6,7-diethoxy-1,2,3,4-tetrahydro-1-isoquinolinylidene)-2-[2-hydroxy-3-(4-morpholinyl)propyl]mercaptoacetonitrile hydrochloride] |  |  |  |  | Inhibition of the histamine-induced constriction of isolated tracheal smooth muscle of guinea pig pd'2 ([1]; 15 min): 6.36 |
| CCOc1cc2c(cc1OCC)C(=C(C#N)SCC(O)CN(CC)CC)NCC2 (centres unmarked) [Example 2, 2-(6,7-diethoxy-1,2,3,4-tetrahydro-1-isoquinolinylidene)-2-(3-diethylamino-2-hydroxypropyl)-mercaptoacetonitrile hydrochloride] | 12.3 | -22.9 | -20.6 | -11.3 | Percentage of inhibition ([3]; 30 minutes): -24%; Percentage of inhibition ([3]; 60 minutes): -21%; Percentage of inhibition ([3]; 90 minutes): -25%; Percentage of inhibition ([3]; 120 minutes): -23%; Percentage of inhibition ([3]; 180 minutes): -17% |
| COc1cc2c(cc1OC)C(=C(C#N)SCC(O)CNC(C)(C)C)NCC2 (centres unmarked) [Example 8, 2-(6,7-dimethoxy-1,2,3,4-tetrahydro-1-isoquinolinylidene)-2-(3-tert-butylamino-2-hydroxypropyl)mercaptoacetonitrile hydrochloride] | 13.5 |  |  |  |  |
| COc1cc2c(cc1OC)C(=C(C#N)SCC(O)CNC(C)C)NCC2 (centres unmarked) [Example 6, 2-(6,7-dimethoxy-1,2,3,4-tetrahydro-1-isoquinolinylidene)-2-(2-hydroxy-3-isopropylaminopropyl)mercaptoacetonitrile hydrochloride hemihydrate] | 0.204 | 0 | -17 | 0 |  |
| COc1cc2c(cc1OC)C(=C(C#N)SCC(O)CN(CCO)CCO)NCC2 (centres unmarked) [Example 4, 2-(6,7-dimethoxy-1,2,3,4-tetrahydro-1-isoquinolinylidene)-2-[3-(N,N-bis-2-hydroxyethyl)-amino-2-hydroxypropyl]-mercapto-acetonitrile hydrochloride dihydrate] | 50.1 | -25 | -26 | -24 |  |
| COc1cc2c(cc1OC)C(=C(C#N)SCC(O)CN(C)CCO)NCC2 (centres unmarked) [Example 3, 2-(6,7-dimethoxy-1,2,3,4-tetrahydro-isoquinolinylidene)-2-[3-(N-methyl-N-2-hydroxyethyl)-amino-2-hydroxypropyl]-mercapto-acetonitrile hydrochloride] | 26.9 |  |  |  |  |
| CCOc1cc2c(cc1OCC)C(=C(C#N)SCC(O)CN(CCO)CCO)NCC2 (centres unmarked) [Example 5, 2-(6,7-diethoxy-1,2,3,4-tetrahydro-1-isoquinolinylidene)-2-[3-(N,N-bis-2-hydroxyethyl)-amino-2-hydroxypropyl]mercapto-acetonitrile hydrochloride] | 45.7 | -21 | -16.5 | -10 |  |
| COc1cc2c(cc1OC)C(=C(C#N)SCC(CN1CCOCC1)OC(C)=O)NCC2 (centres unmarked) [Example 23, 2-(6,7-dimethoxy-1,2,3,4-tetrahydro-1-isoquinolinylidene)-2-[2-acetoxy-3-(4-morpholinyl)propyl]mercaptoacetonitrile hydrochloride] | 17.4 | -33.8 | -30.9 | -29.5 |  |
| CCOc1cc2c(cc1OCC)C(=C(C#N)SCC(O)CN1CCOCC1)NCC2 (single isomer, unassigned; (-)) [Example 27, (-)-2-(6,7-diethoxy-1,2,3,4-tetrahydro-1-isoquinolinylidene)-2-[2-hydroxy-3-(4-morpholinyl)propyl]mercaptoacetonitrile d-camphorsulfonate] | 0.537 |  |  |  |  |
| CCN(CC)CC(O)CSC(C#N)=C1NCCc2cc(OC)c(OC)cc21 (centres unmarked) [Example 1, 2-(6,7-dimethoxy-1,2,3,4-tetrahydro-1-isoquinolinylidene)-2-(3-diethylamino-2-hydroxypropyl)-mercaptoacetonitrile hydrochloride] | 9.12 |  |  |  |  |

More lines, main results first:

| IC50 [1] [µM] | SMILES | change in vivo at 50 mg/kg ([2]; 1.5 hours) [%] | change in vivo at 50 mg/kg ([2]; 3 hours) [%] | change in vivo at 50 mg/kg ([2]; 4.5 hours) [%] | further results |
| --- | --- | --- | --- | --- | --- |
| 7.24 | CCOc1cc2c(cc1OCC)C(=C(C#N)SCC(O)CN1CCN(C)CC1)NCC2 (centres unmarked) [Example 22, 2-(6,7-diethoxy-1,2,3,4-tetrahydro-1-isoquinolinylidene)-2-[2-hydroxy-3-(4-methyl-piperazinyl)propyl]mercaptoacetonitrile hydrochloride] |  |  |  |  |
| 32.4 | N#CC(SCC(O)CN1CCOCC1)=C1NCCc2ccccc21 (centres unmarked) [Example 16, 2-(1,2,3,4-tetrahydro-1-isoquinolinylidene)-2-[2-hydroxy-3-(4-morpholinyl)propyl]mercaptoacetonitrile hydrochloride hemihydrate] | -29.3 | -22.2 | -20 |  |
| 12.6 | CCOc1cc2c(cc1OCC)C(=C(C#N)SCC(O)CN1CCCC1)NCC2 (centres unmarked) [Example 13, 2-(6,7-diethoxy-1,2,3,4-tetrahydro-1-isoquinolinylidene)-2-[2-hydroxy-3-(1-pyrrolidinyl)propyl]mercaptoacetonitrile hydrochloride] | -31.8 | -21.8 | -9.05 |  |
| 97.7 | COc1cc2c(cc1OC)C(=C(C#N)SCC(O)CN1CCCCCC1)NCC2 (centres unmarked) [Example 19, 2-(6,7-dimethoxy-1,2,3,4-tetrahydro-1-isoquinolinylidene)-2-(3-hexamethylenimino-2-hydroxypropyl)mercaptoacetonitrile] | -29 | -24.2 | -19.5 | Percentage of inhibition ([3]; 30 minutes): -28.2%; Percentage of inhibition ([3]; 60 minutes): -26.6%; Percentage of inhibition ([3]; 90 minutes): -27.3%; Percentage of inhibition ([3]; 120 minutes): -27.8%; Percentage of inhibition ([3]; 180 minutes): -22.8% |
| 35.5 | CCOc1cc2c(cc1OCC)C(=C(C#N)SCC(O)CNC1CCCCC1)NCC2 (centres unmarked) [Example 11, 2-(6,7-diethoxy-1,2,3,4-tetrahydro-1-isoquinolinylidene)-2-(3-cyclohexylamino-2-hydroxypropyl)mercaptoacetonitrile hydrochloride] |  |  |  |  |
| 105 | COc1cc2c(cc1OC)C(=C(C#N)SCC(O)CNC1CCCCC1)NCC2 (centres unmarked) [Example 10, 2-(6,7-dimethoxy-1,2,3,4-tetrahydro-1-isoquinolinylidene)-2-(3-cyclohexylamino-2-hydroxypropyl)mercaptoacetonitrile hydrochloride] | -14.8 | -13 | -7.2 | Percentage of inhibition ([3]; 30 minutes): -25%; Percentage of inhibition ([3]; 60 minutes): -24%; Percentage of inhibition ([3]; 90 minutes): -25%; Percentage of inhibition ([3]; 120 minutes): -27%; Percentage of inhibition ([3]; 180 minutes): -50% |
| 2.88 | COc1cc2c(cc1OC)C(=C(C#N)SCC(O)CN1CCN(C)CC1)NCC2 (centres unmarked) [Example 21, 2-(6,7-dimethoxy-1,2,3,4-tetrahydro-1-isoquinolinylidene)-2-[2-hydroxy-3-(4-methyl-1-piperazinyl)propyl]mercaptoacetonitrile hydrochloride] |  |  |  |  |
| 34.7 | COc1cc2c(cc1OC)C(=C(C#N)SCC(O)CN1CCCCC1)NCC2 (centres unmarked) [Example 15, 2-(6,7-dimethoxy-1,2,3,4,-tetrahydro-1-isoquinolinylidene)-2-[2-hydroxy-3-(1-piperidinyl)propil]mercaptoacetonitrile hydrochloride] |  |  |  |  |
| 41.7 | CCOc1cc2c(cc1OCC)C(=C(C#N)SCC(O)CNC(C)(C)C)NCC2 (centres unmarked) [Example 9, 2-(6,7-diethoxy-1,2,3,4-tetrahydro-1-isoquinolinylidene)-2-(3-tert-butylamino-2-hydroxypropyl)mercaptoacetonitrile hydrochloride hemihydrate] |  |  |  |  |
